Read-outs that look alike come from different tables or passages of the source.
What was measured:
WDR5 = WDR5 (Homo sapiens, UniProt P61964); experiment: TR-FRET competition binding assay, displacement of 10mer-Thr-FAM MLL peptide probe from His-tagged WDR5; settings: WDR5-His tag (residues 24-334) 2 nM; 10mer-Thr-FAM 150 nM; 60 min, room temperature; read-out: Ki for Inhibition of WDR5 by TR-FRET assay
[1] = test system: MV4:11 human cancer cell lines; experiment: Cellular viability / anti-proliferative assay, CellTiter-Glo, 5 day protocol; type: cell-based; settings: Homo sapiens, MV4-11, 120 h, read-out: GI50 on cellular proliferation of MV4:11 human cancer cell lines
How it was run: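 Luminescent ATP-based viability (CellTiter-Glo) after a 5-day exposure gave GI50 via sigmoidal fitting, averaged over two or more replicates. Compounds spanned 22 two-fold steps down from 30 μM at 0.3% DMSO, on 200 MV-4-11 cells per well grown in IMDM plus 10% FBS.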

[2] = MV4:11 cells, 5 day incubation, CellTiter-Glo, mean of at least two replicates

Row | SMILES | Ki (WDR5) | GI50 [1, 2] | GI50 [1]
1 | CCc1cnc2cccc(N3CCc4c(cc(Cn5ccnc5)cc4-c4cn(C)nc4C(F)(F)F)C3=O)c2c1 [Example 90, 7-((1H-Imidazol-1-yl)methyl)-2-(3-ethylquinolin-5-yl)-5-(1-methyl-3-(trifluoromethyl)-1H-pyrazol-4-yl)-3,4-dihydroisoquinolin-1(2H)-one] | 0.033 nM | 21 nM | 
2 | COc1ccc2c(C)ncc(N3CCc4c(cc(Cn5ccnc5)cc4-c4cn(C)nc4C(F)(F)F)C3=O)c2c1 [Example 88, 7-((1H-imidazol-1-yl)methy)-6′-methoxy-1′-methyl-5-(1-methyl-3-(trifluoromethyl)-1H-pyrazol-4-yl)-3,4-dihydro-1H-[2,4′-biisoquinolin]-1-one] | 0.043 nM | < 20 nM | 
3 | CCn1cc(-c2cc(Cn3ccnc3C)cc3c2CCN(c2cn(C)c4ccc(OC)cc24)C3=O)c(C(F)(F)F)n1 [Example 86, 5-(1-Ethyl-3-(trifluoromethyl)-1H-pyrazol-4-yl)-2-(5-methoxy-1-methyl-1H-indol-3-yl)-7-((2-methyl-1H-imidazol-1-yl)methyl)-3,4-dihydroisoquinolin-1(2H)-one] | < 0.02 nM | 107 nM | 
4 | COc1cc(COC2CCN(C)CC2)c2nccc(N3CCc4c(cc(Cn5ccnc5)cc4-c4cn(C)nc4C(F)(F)F)C3=O)c2c1 [Example 169, 7-((1H-Imidazol-1-yl)methyl)-2-(6-methoxy-8-(((1-methylpiperidin-4-yl)oxy)methyl)quinolin-4-yl)-5-(1-methyl-3-(trifluoromethyl)-1H-pyrazol-4-yl)-3,4-dihydroisoquinolin-1(2H)-one] | < 0.02 nM | < 20 nM | 
5 | COCc1cc(OC)cc2c(N3CCc4c(cc(Cn5ccnc5)cc4-c4cn(C)nc4C(F)(F)F)C3=O)ccnc12 [Example 136, 7-((1H-Imidazol-1-yl)methyl)-2-(6-methoxy-8-(methoxymethyl)quinolin-4-yl)-5-(1-methyl-3-(trifluoromethyl)-1H-pyrazol-4-yl)-3,4-dihydroisoquinolin-1(2H)-one] | < 0.02 nM | < 20 nM | 
6 | CCc1cc(COc2ccncc2)c2nccc(N3CCc4c(cc(Cn5ccnc5)cc4-c4cn(C)nc4C(F)(F)F)C3=O)c2c1 [Example 187, 7-((1H-Imidazol-1-yl)methyl)-2-(6-ethyl-8-((pyridin-4-yloxy)methyl)quinolin-4-yl)-5-(1-methyl-3-(trifluoromethyl)-1H-pyrazol-4-yl)-3,4-dihydroisoquinolin-1(2H)-one] | < 0.02 nM | 43 nM | 
7 | CCn1cc(-c2cc(Cn3ccnc3C)cc3c2CCN(c2cc(C)nc4ccc(OC)cc24)C3=O)c(C(F)(F)F)n1 [Example 51, 5-(1-Ethyl-3-(trifluoromethyl)-1H-pyrazol-4-yl)-2-(6-methoxy-2-methylquinolin-4-yl)-7-((2-methyl-1H-imidazol-1-yl)methyl)-3,4-dihydroisoquinolin-1(2H)-one] | < 0.02 nM | < 20 nM | 
8 | COc1cc(CO)c2nccc(N3CCc4c(cc(Cn5ccnc5)cc4-c4cn(C)nc4C(F)(F)F)C3=O)c2c1 [Example 94, 7-((1H-Imidazol-1-yl)methyl)-2-(8-(hydroxymethyl)-6-methoxyquinolin-4-yl)-5-(1-methyl-3-(trifluoromethyl)-1H-pyrazol-4-yl)-3,4-dihydroisoquinolin-1(2H)-one] | 0.039 nM | 28 nM | 
9 | COc1cnc2cc(C)cc(N3CCc4c(cc(Cn5ccnc5N)cc4-c4cn(C)nc4C(F)(F)F)C3=O)c2c1 [Example 221, 7-((2-Amino-1H-imidazol-1-yl)methyl)-2-(3-methoxy-7-methylquinolin-5-yl)-5-(1-methyl-3-(trifluoromethyl)-1H-pyrazol-4-yl)-3,4-dihydroisoquinolin-1(2H)-one] | 0.024 nM | < 20 nM | 
10 | COc1cnc2cc(C)cc(N3CCc4c(cc(Cn5ccnc5)cc4-c4cn(C)nc4C(F)(F)F)C3=O)c2c1 [Example 202, 7-((1H-Imidazol-1-yl)methyl)-2-(3-methoxy-7-methylquinolin-5-yl)-5-(1-methyl-3-(trifluoromethyl)-1H-pyrazol-4-yl)-3,4-dihydroisoquinolin-1(2H)-one] | 0.02 nM | < 20 nM | 
11 | COc1ccc2c(c1)c(N1CCc3c(cc(Cn4ccnc4C)cc3-c3cn(C)nc3C(F)(F)F)C1=O)nn2C [Example 81, 2-(5-Methoxy-1-methyl-1H-indazol-3-yl)-7-((2-methyl-1H-imidazol-1-yl)methyl)-5-(1-methyl-3-(trifluoromethyl)-1H-pyrazol-4-yl)-3,4-dihydroisoquinolin-1(2H)-one] | < 0.02 nM | 38 nM | 
12 | Cn1cc(-c2cc(Cn3ccnc3)cc3c2CCN(c2cccc4ncc(C5CC5)cc24)C3=O)c(C(F)(F)F)n1 [Example 130, 7-((1H-Imidazol-1-yl)methyl)-2-(3-cyclopropylquinolin-5-yl)-5-(1-methyl-3-(trifluoromethyl)-1H-pyrazol-4-yl)-3,4-dihydroisoquinolin-1(2H)-one] | 0.051 nM |  | 218 nM
13 | CNC(=O)c1cc(OC)cc2c(N3CCc4c(cc(Cn5ccnc5)cc4-c4cn(C)nc4C(F)(F)F)C3=O)cc(C)nc12 [Example 183, 4-(7-((1H-Imidazol-1-yl)methyl)-5-(1-methyl-3-(trifluoromethyl)-1H-pyrazol-4-yl)-1-oxo-3,4-dihydroisoquinolin-2(1H)-yl)-6-methoxy-N,2-dimethylquinoline-8-carboxamide] | < 0.02 nM | < 20 nM | 
14 | CCc1cc(OC)c2cncc(N3CCc4c(cc(Cn5ccnc5)cc4-c4cn(C)nc4C(F)(F)F)C3=O)c2c1 [Example 116, 7-((1H-Imidazol-1-yl)methy)-6′-ethyl-8-methoxy-5-(1-methyl-3-(trifluoromethyl)-1H-pyrazol-4-yl)-3,4-dihydro-1H-[2,4′-biisoquinolin]-one] | 0.028 nM |  | < 20 nM
15 | COc1cc(CN2CCN(C3CCOCC3)CC2)c2nccc(N3CCc4c(cc(Cn5ccnc5)cc4-c4cn(C)nc4C(F)(F)F)C3=O)c2c1 [Example 143, 7-((1H-Imidazol-1-yl)methyl)-2-(6-methoxy-8-((4-(tetrahydro-2H-pyran-4-yl)piperazin-1-yl)methyl)quinolin-4-yl)-5-(1-methyl-3-(trifluoromethyl)-1H-pyrazol-4-yl)-3,4-dihydroisoquinolin-1(2H)-one] | 0.038 nM | < 20 nM | 
16 | Cc1cc2c(N3CCc4c(cc(Cn5ccnc5)cc4-c4cn(C)nc4C(F)(F)F)C3=O)cccc2n1C [Example 26, 7-((1H-Imidazol-1-yl)methyl)-2-(1,2-dimethyl-1H-indol-4-yl)-5-(1-methyl-3-(trifluoromethyl)-1H-pyrazol-4-yl)-3,4-dihydroisoquinolin-1(2H)-one] | 0.087 nM | 369 nM | 
17 | Cc1nccn1Cc1cc2c(c(-c3cn(C)nc3C(F)(F)F)c1)CCN(C1CCOc3ccc(C4CC4)cc31)C2=O (stereo not shown) [Example 63, 2-(6-Cyclopropylchroman-4-yl)-7-((2-methyl-1H-imidazol-1-yl)methyl)-5-(1-methyl-3-(trifluoromethyl)-1H-pyrazol-4-yl)-3,4-dihydroisoquinolin-1(2H)-one] | 0.068 nM | 87 nM | 
18 | COc1cnc2c(c1)C(N1CCc3c(cc(Cn4ccnc4C)cc3-c3cn(C)nc3C(F)(F)F)C1=O)CCC2 (stereo not shown) [Example 65, 2-(3-Methoxy-5,6,7,8-tetrahydroquinolin-5-yl)-7-((2-methyl-1H-imidazol-1-yl)methyl)-5-(1-methyl-3-(trifluoromethyl)-1H-pyrazol-4-yl)-3,4-dihydroisoquinolin-1(2H)-one] | < 0.02 nM | < 20 nM | 
19 | COc1ccc2nc(C)cc(N3CCc4c(cc(Cn5ccnc5N)cc4-c4cn(C)nc4C(F)(F)F)C3=O)c2c1 [Example 121, 7-((2-Amino-1H-imidazol-1-yl)methyl)-2-(6-methoxy-2-methylquinolin-4-yl)-5-(1-methyl-3-(trifluoromethyl)-1-1H-pyrazol-4-yl)-3,4-dihydroisoquinolin-1(2H)-one] | 0.023 nM | < 20 nM | 
20 | COc1ccc2nc(C)cc(N3CCc4c(cc(Cn5ccnc5C)cc4-c4cn(C)nc4C(F)(F)F)C3=O)c2c1 [Example 8, 2-(6-Methoxy-2-methylquinolin-4-yl)-7-((2-methyl-1H-imidazol-1-yl)methyl)-5-(1-methyl-3-(trifluoromethyl)-1H-pyrazol-4-yl)-3,4-dihydroisoquinolin-1(2H)-one] | 0.026 nM | < 20 nM | 
21 | COc1cc(C(=O)N2CCCC2)c2nccc(N3CCc4c(cc(Cn5ccnc5)cc4-c4cn(C)nc4C(F)(F)F)C3=O)c2c1 [Example 44, 7-((1H-Imidazol-1-yl)methyl)-2-(6-methoxy-8-(pyrrolidine-1-carbonyl)quinolin-4-yl)-5-(1-methyl-3-(trifluoromethyl)-1H-pyrazol-4-yl)-3,4-dihydroisoquinolin-1(2H)-one] | < 0.02 nM | 353 nM | 
22 | CCc1cc(N(C)CCN(C)C)c2nccc(N3CCc4c(cc(Cn5ccnc5)cc4-c4cn(C)nc4C(F)(F)F)C3=O)c2c1 [Example 38, 7-((1H-Imidazol-1-yl)methyl)-2-(8-((2-(dimethylamino)ethyl)(methyl)amino)-6-ethylquinolin-4-yl)-5-(1-methyl-3-(trifluoromethyl)-1H-pyrazol-4-yl)-3,4-dihydroisoquinolin-1(2H)-one] | < 0.02 nM | 31 nM | 
23 | CCc1cc(COC)c2nccc(N3CCc4c(cc(Cn5ccnc5)cc4-c4cn(C)nc4C(F)(F)F)C3=O)c2c1 [Example 188, 7-((1H-Imidazol-1-yl)methyl)-2-(6-ethyl-8-(methoxymethyl)quinolin-4-yl)-5-(1-methyl-3-(trifluoromethyl)-1H-pyrazol-4-yl)-3,4-dihydroisoquinolin-1(2H)-one] | < 0.02 nM | < 20 nM | 
